Source: US20230093684A1, “STIMULI - OR BIO- RESPONSIVE COPOLYMERS, THE POLYMERSOMES COMPRISING THE SAME AND THEIR USE IN DRUG DELIVERY” (CENTRE NATIONAL DE LA RECHERCHE SCIENTIFIQUE, priority 2019, published 2023)

Test: Glutathione (GSH)-triggered doxorubicin release followed by fluorescence
Assay type: physicochemical
Conditions: Dox solution in brine 0.9% + GSH 10 mM
Protocol: Release of the encapsulated compound: The amount of released dye was followed at RT by fluorescence spectroscopy (Hitachi F7000 spectrometer). […] The λex excitation wavelength was set at 480 nm and the emission λem spectra were recorded from 490 to 720 nm. The instrument was used in scan mode, with excitation slit set to 5 nm and emission slit set to 5 nm.
The liberation of doxorubicin was followed by monitoring the fluorescence. Fluorescence spectra were collected by excitation at λex=470 nm wavelength and reading at λem=600 nm. In order to quantify the encapsulated drug, a method for the quantitative liberation was needed. Different methods, such as solvolysis, photolysis, addition of redox agents (sodium dithionite, mercaptoethanol, sodium thiosulfate, glutathione) were tested and are discussed as follows.
In parallel, Quino-Ps-DOX (50 μL) was treated with the […] glutathione (GSH) in its reduced form, 1 μL at c=10 mM in brine (0.9% (v/w). The concentration of the GSH was set to 10 mM in order to be compatible with the highest intracellular level (FIG. 5).
The amount of the liberated drug was quantified by fluorescence (λex=470 nm and λem=600 nm), by using a calibration curve (FIG. 6) ([…] (R^2=0.9911)). […]

- fluorescence intensity of free doxorubicin treated with GSH (stability control): no change in the fluorescence intensity
SMILES: COc1cccc2c1C(=O)c1c(O)c3c(c(O)c1C2=O)C[C@@](O)(C(=O)CO)C[C@@H]3O[C@H]1C[C@H](N)[C@H](O)[C@H](C)O1 [doxorubicin]
